# Reference: patent US6376480B1, “Vitamin D derivatives with substituents at C-25, process for their production, intermediate products and use for the production of pharmaceutical agents” (Schering Aktiengesellschaft, priority 1995, dated 2002)
# Tests used:
# healthy male rats = assay: acute hypercalcemic action after one-time subcutaneous administration; format: in vivo, rat; conditions: DR = test substance dose/calcitriol dose for comparable effects, serum-calcium
# Procedure: To determine the acute hypercalcemic action of various calcitriol derivatives, the test that is described below is carried out:
# The action of control (solution base), reference substance (1,25(OH)2—D3=calcitriol) and test substance is tested in each case after one-time subcutaneous administration in groups of 10 healthy male rats (140-170 g). During the testing time, the rats are kept in special cages to determine the excretion of water and mineral substances. Urine is collected in 2 fractions (0-16 hours and 16-22 hours). An oral dose of calcium (0.1 mmol of calcium in 6.5% alpha-hydroxypropylcellulose, 5 ml/animal) replaces at 1600 hours the calcium intake that is lacking by food deprivation. At the end of the test, the animals are killed by decapitation and exsanguinated to determine the serum-calcium values. For the primary screen test in vivo, an individual standard dose (200 μg/kg) is tested. For selected substances, the result is supported by establishing a dose-effect relation.
# A hypercalcemic action is shown in serum-calcium level values that are higher than in the control.
# The significance of differences between substance groups and controls and between test substance and reference substance are supported with suitable statistical processes.
# HL 60 cells [1] = assay: differentiation induction of HL 60 cells to macrophages (NBT reduction); format: cell-based, human; conditions: DR = test substance dose/calcitriol dose for comparable semi-maximum effects; 96 hours incubation
# Procedure: It is known in the literature (Mangelsdorf, D. J. et al., J. Cell. Biol. 98: 391-398 (1984)), that the treatment of human leukemia cells (promyelocyte cell line HL 60) in vitro with calcitriol induces the differentiation of cells to macrophages.
# HL 60 cells are cultivated in tissue culture medium (RPMI 10% fetal calf serum) at 37° C. in an atmosphere of 5% CO2 in air.
# For substance testing, the cells are centrifuged off, and 2.0×10^5 cells/ml in phenol red-free tissue culture medium is taken up. The test substances are dissolved in ethanol and diluted with tissue culture medium without phenol red to the desired concentration. The dilution stages are mixed with the cell suspension at a ratio of 1:10, and 100 μl each of this cell suspension that is mixed with substance is pipetted into an indentation of a 96-hole plate. For control, a cell suspension is mixed analogously with the solvent.
# After incubation for 96 hours at 37° C. in 5% CO2 in air, 100 μl of an NBT-TPA solution (nitro blue tetrazolium (NBT), final concentration in the batch of 1 mg/ml, tetradecanoyl phorbolmyristate-13-acetate (TPA), final concentration in the batch of 2×10^−7 mol/l) is pipetted into each indentation of the 96-hole plate in the cell suspension.
# By incubation for 2 hours at 37° C. and 5% CO2 in air, NBT is reduced to insoluble formazan because of the intracellular oxygen radical release, stimulated by TPA, in the cells that are differentiated to macrophages.
# To complete the reaction, the indentations of the 96-hole plate are suctioned off, and the cells are affixed to the bottom of the plate by adding methanol and dried after affixing. To dissolve the intracellular formazan crystals that are formed, 100 μl of potassium hydroxide (2 mol/l) and 100 μl of dimethyl sulfoxide are pipetted into-each indentation and ultrasonically treated for 1 minute. The concentration of formazan is measured by spectrophotometry at 650 nm.
# As a yardstick for the differentiation induction of HL 60 cells to macrophages, the concentration of formed formazan applies.
# calcitriol receptor = biological target: T1, calcitriol receptor (Sus scrofa, UniProt A3RGC1); assay: calcitriol-receptor test (competition with 3H-calcitriol); conditions: quotient of concentrations of test substance and calcitriol for 50% competition, receptor protein from intestines of juvenile pigs
# T1 sequence (A3RGC1 1-427): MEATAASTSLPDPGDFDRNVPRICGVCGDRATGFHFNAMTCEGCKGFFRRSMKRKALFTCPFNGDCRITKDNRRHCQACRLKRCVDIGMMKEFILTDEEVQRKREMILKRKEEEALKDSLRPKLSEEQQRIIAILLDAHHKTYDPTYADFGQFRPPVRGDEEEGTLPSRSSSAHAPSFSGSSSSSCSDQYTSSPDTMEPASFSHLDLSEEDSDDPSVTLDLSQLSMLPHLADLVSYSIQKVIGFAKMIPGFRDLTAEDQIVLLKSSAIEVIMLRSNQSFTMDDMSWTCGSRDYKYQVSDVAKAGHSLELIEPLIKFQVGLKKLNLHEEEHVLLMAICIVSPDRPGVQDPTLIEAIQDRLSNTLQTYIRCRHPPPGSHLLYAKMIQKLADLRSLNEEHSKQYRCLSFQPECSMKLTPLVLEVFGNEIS
# Procedure: The vitamin D activity of the substances according to the invention is determined with the aid of the calcitriol-receptor test. It is carried out with use of a specific receptor protein from the intestines of juvenile pigs.
# Then, the samples are centrifuged at 10,000×g for 5 minutes at 4° C. The supernatant is decanted and measured in a β-counter after 1 hour of equilibration in Picofluor 15™.
# The competition curves that are obtained with various concentrations of test substance as well as of reference substance (unlabeled calcitriol) at constant concentration of the reference substance (^3H-calcitriol) are placed in relation to one another and a competition factor (KF) is determined.
# It is defined as a quotient of the concentrations of the respective test substance and the reference substance, which are necessary for 50% competition: [formula]
# HL 60 cells [2] = assay: antagonism of the action of calcitriol in HL 60 cells; format: cell-based, human
SMILES,dose ratio for hypercalcemia (healthy male rats),Dose Ratio for Differentiation Induction in HL 60 Cells (HL 60 cells [1]),Competition Factor KF for Receptor Bonding (calcitriol receptor),antagonism of the action of calcitriol in HL 60 cells (HL 60 cells [2])
"C=C1/C(=C\C=C2/CCC[C@]3(C)[C@@H]([C@H](C)CCCC(C)(C)O)CC[C@@H]23)C[C@@H](O)C[C@@H]1O [Calcitriol, 1α,25-dihydroxy vitamin D3, reference compound]",1,1,,
"C=C1/C(=C\C=C2/CCC[C@]3(C)[C@@H]([C@H](C)/C=C/[C@@H](O)C4(C(=O)CCC)CC4)CC[C@@H]23)C[C@@H](O)C[C@@H]1O [Compound 8b, (5Z,7E,22E)-(1S,3R,24R)-25-(1-oxobutyl)-26,27-cyclo-9,10-secocholesta-5,7,10(19),22-tetraene-1,3,24-triol]",100,0.9,2,
"C=C1/C(=C\C=C2/CCC[C@]3(C)[C@@H]([C@H](C)/C=C/[C@@H](O)C4(C(=O)C(C)(C)C)CC4)CC[C@@H]23)C[C@@H](O)C[C@@H]1O [Compound 15b, (5Z,7E,22E)-(1S,3R,24R)-25-(2,2-Dimethyl-1-oxopropyl)-26,27-cyclo-9,10-secocholesta-5,7,10(19),22-tetraene-1,3,24-triol]",300,1.1,6,
"C=C1/C(=C\C=C2/CCC[C@]3(C)[C@@H]([C@H](C)/C=C/[C@@H](O)C4(C(=O)CCCC)CC4)CC[C@@H]23)C[C@@H](O)C[C@@H]1O [Compound 6b, (5Z,7E,22E)-(1S,3R,24R)-25-(1-Oxopentyl)-26,27-cyclo-9,10-secocholesta-5,7,10(19),22-tetraene-1,3,24-triol]",,58,2,antagonize the action of calcitriol
"C=C1/C(=C\C=C2/CCC[C@]3(C)[C@@H]([C@H](C)/C=C/[C@@H](O)C4(C(=O)C#CCCC)CC4)CC[C@@H]23)C[C@@H](O)C[C@@H]1O [Compound 19b, (5Z,7E,22E)-(1S,3R,24R)-25-(1-Oxo-2-hexinyl)-26,27-cyclo-9,10-secocholesta-5,7,10(19),22-tetraene-1,3,24-triol]",> 300,1.5,2,
"C=C1C(=CC=C2CCCC3(C)C2CCC3C(C)C=CC(O)C2(C(C)=O)CC2)CC(O)CC1O [Compound 7b, (5Z,7E,22E)-(1S,3R,24R)-25-Acetyl-26,27-cyclo-9,10-secocholesta-5,7,10(19),22-tetraene-1,3,24-triol]",300,0.5,1,
"C=C1/C(=C\C=C2/CCC[C@]3(C)[C@@H]([C@H](C)/C=C/[C@@H](O)C4(C(=O)/C=C/CCC)CC4)CC[C@@H]23)C[C@@H](O)C[C@@H]1O [Compound 18b, [5Z,7E,22E,25(E)]-(1S,3R,24R)-25-(1-Oxo-2-hexenyl)-26,27-cyclo-9,10-secocholesta-5,7,10(19),22-tetraene-1,3,24-triol]",,330,2,antagonize the action of calcitriol
